Measured values from US12551573B2, “Compositions and methods for the targeting of PCSK9” (Scribe Therapeutics Inc., priority 2022, dated 2026).

Test system: human PCSK9 locus
Test: Secreted PCSK9 by ELISA (normalized to total cell count) in Huh7 cells transfected with mRNA and gRNA
Type: cell-based
Conditions: paired with LTRP5-ADD-ZIM3 mRNA; for Secreted PCSK9 / Percent reduction in PCSK9 secretion / Average percent reduction in PCSK9 secretion: Huh7 cells, 6 days post-transfection; for Secreted PCSK9: normalized to total cell count; for Percent reduction in PCSK9 secretion: relative to non-targeting gRNA control; for Average percent reduction in PCSK9 secretion: averaged from the two doses
Procedure: To assess PCSK9 secretion, seeded Huh7 cells were transfected with mRNA encoding a catalytically-active CasX 676, dXR1, or LTRP5-ADD-ZIM3 and a gRNA with scaffold 316 and spacer targeting either the B2M or PCSK9 locus. Media supernatant was harvested at 6, 18, 36, and 87 days post-transfection to assess level of PCSK9 secretion by ELISA. Levels of PCSK9 secretion were normalized to total cell count. As an additional control, PCSK9 secretion was also measured in the media supernatant harvested from wells containing untreated, naïve cells.
The following three human hepatocyte cancer cell lines were used in this experiment: HepG2 cells, Hep3B cells, and Huh7 cells. ˜15,000 cells of each cell line were seeded per well; the next day, seeded cells were transfected with mRNA encoding a catalytically-active CasX 676, dXR1, or LTRP5-ADD-ZIM3 and a gRNA with scaffold 316 and spacer targeting either the B2M or PCSK9 locus (see Table 23 for specific spacers and sequences). Media supernatant was harvested at 4 days post-transfection to assess level of PCSK9 secretion by ELISA, and levels of PCSK9 secretion were normalized to total cell count and illustrated in FIGS. 11A-11C. Culturing of treated Huh7 cells continued, and media supernatant was harvested at 14 and 27 days post-transfection for measuring PCSK9 secretion by ELISA. As an additional experimental control, PCSK9 secretion was also measured in the media supernatant harvested from wells containing untreated, naïve cells.
To assess PCSK9 secretion, seeded Huh7 cells were co-transfected with mRNA encoding for LTRP5-ADD-ZIM3 and a gRNA with scaffold 316 and spacer targeting the PCSK9 locus using Lipofectamine™ 3000. Two doses of total RNA input at a 2:1 mass ratio of mRNA to gRNA were used for screening: 50 ng mRNA: 25 ng gRNA and 25 ng mRNA: 12.5 ng gRNA. Media supernatant was harvested at 6 days post-transfection to assess level of PCSK9 secretion by ELISA (Table 74). Levels of PCSK9 secretion were normalized to total cell count. As an additional control, PCSK9 secretion was also measured in the media supernatant harvested from cells transfected with mRNA encoding for mScarlet.

Substance	Secreted PCSK9 (25 ng mRNA:12.5 ng gRNA)	Percent reduction in PCSK9 secretion (25 ng mRNA:12.5 ng gRNA)	Secreted PCSK9 (50 ng mRNA:25 ng gRNA)	Percent reduction in PCSK9 secretion (50 ng mRNA:25 ng gRNA)	Average percent reduction in PCSK9 secretion	repression of PCSK9 secretion by spacer (Huh7, scaffold 316, days 4, 14, 27)	secreted PCSK9: sustained repression through day 36 (Huh7, scaffold 316, compared to spacer 6.1 paired with CasX 676)
CGCGCCCUGCUCCUGAACUU (listed as RNA, chemistry not given here) [spacer 6.160, Exon 1]	48.67 ng/mL	31.69%	20.63 ng/mL	74.93%	53.31%	–	–
UGGGUCCACCUUGUCUCCUG (listed as RNA, chemistry not given here) [spacer 6.145, Promoter]	18.54 ng/mL	73.98%	15.8 ng/mL	80.8%	77.39%	–	–
TG-06-342 (guide AAUUACAGGCAACAGGAAGG; listed as RNA, chemistry not given here)	75.23 ng/mL	5.6%	51.55 ng/mL	37.34%	15.87%	–	–
CUCUGCGCGUAAUCUGACGC (listed as RNA, chemistry not given here) [spacer 6.151, Promoter]	66.42 ng/mL	6.77%	53.44 ng/mL	35.05%	20.91%	–	–
GCUGAAACAGAUGGAAUACU (listed as RNA, chemistry not given here) [spacer 6.172, Intron 1]	59.31 ng/mL	16.75%	44.44 ng/mL	45.99%	31.37%	–	–
GAGUGAAAUGGCCUGCUCUG (listed as RNA, chemistry not given here) [spacer 6.118, Promoter]	54.78 ng/mL	23.11%	35.5 ng/mL	56.86%	39.99%	–	–
Non-targeting (guide CGAGACGTAATTACGTCTCG; chemistry not given here)	71.24 ng/mL	0%	82.28 ng/mL	0%	0%	–	–
TG-06-250 (guide GAUUUGGUUUGGAAAACAUG; listed as RNA, chemistry not given here)	80.42 ng/mL	12.87%	86.92 ng/mL	5.64%	9.26%	–	–
GUUAAUGUUUAAUCAGAUAG (listed as RNA, chemistry not given here) [spacer 6.153, Promoter]	86.58 ng/mL	21.52%	73.23 ng/mL	10.99%	5.27%	–	–
CAGUAUCGACAGCCCUUCCA (listed as RNA, chemistry not given here) [spacer 6.124, Promoter]	30.59 ng/mL	57.06%	16.54 ng/mL	79.9%	68.48%	–	–
CCUUUUCAUCCUCCUGCCUG (listed as RNA, chemistry not given here) [spacer 6.126, Promoter]	44.82 ng/mL	37.09%	23.48 ng/mL	71.46%	54.27%	–	–
GAGCAGGCCAUUUCACUCGG (listed as RNA, chemistry not given here) [spacer 6.119, Promoter]	84.54 ng/mL	18.66%	70.37 ng/mL	14.47%	2.1%	–	–
GGGUCUGAGCCUGGAGGAGU (listed as RNA, chemistry not given here) [spacer 6.157, Exon 1]	32.4 ng/mL	54.53%	12.32 ng/mL	85.03%	69.78%	most effective repression of PCSK9 secretion	–
GCCUCGCCCUCCCCAAACAG (listed as RNA, chemistry not given here) [spacer 6.152, Promoter]	57.43 ng/mL	19.39%	36.95 ng/mL	55.09%	37.24%	–	–
GCAGCGACGUCGAGGCGCUC (listed as RNA, chemistry not given here) [spacer 6.155, Exon 1]	56.36 ng/mL	20.89%	29.45 ng/mL	64.21%	42.55%	–	–
GGAGCAGGGCGCGUGAAGGG (listed as RNA, chemistry not given here) [spacer 6.158, Exon 1]	31.72 ng/mL	55.48%	9.39 ng/mL	88.59%	72.03%	–	–
AGCCCAGUUAGGAUUUGGGA (listed as RNA, chemistry not given here) [spacer 6.149, Promoter]	38.33 ng/mL	46.21%	21.18 ng/mL	74.26%	60.23%	–	–
TG-06-249 (guide AAACCAAAUCGGAACCCACU; listed as RNA, chemistry not given here)	82.36 ng/mL	15.61%	87.36 ng/mL	6.18%	10.89%	–	–
TG-06-352: PCSK9-targeting TTC spacer positioned beyond the 1100 bp TSS-proximal window (Table 17) (guide UCCCUCACCAAUUACCCCUC; listed as RNA, chemistry not given here)	–	–	–	–	–	–	effective repression through day 36
GUGGGCAGCGAGGAGUCCAC (listed as RNA, chemistry not given here) [spacer 6.144, Promoter]	29 ng/mL	59.29%	23.42 ng/mL	71.53%	65.41%	–	–
TG-06-351 (guide UUAUGACACAGAACUCAUGC; listed as RNA, chemistry not given here)	62.93 ng/mL	11.67%	56.34 ng/mL	31.52%	21.6%	–	–
UCCCUCUGCGCGUAAUCUGA (listed as RNA, chemistry not given here) [spacer 6.150, Promoter]	39.59 ng/mL	44.42%	18.33 ng/mL	77.73%	61.08%	–	–
UCGGCCUCCGGGUCUCCCAA (listed as RNA, chemistry not given here) [spacer 6.170, Intron 1]	72.96 ng/mL	2.41%	64.19 ng/mL	21.98%	9.79%	–	–
GCCAGGCCGUCCUCCUCGGA (listed as RNA, chemistry not given here) [spacer 6.4, Exon 1]	73.05 ng/mL	2.54%	54.83 ng/mL	33.35%	15.41%	–	–
